The test system of one data set is A. calcoaceticus 15473A. Put plainly: Minimum inhibitory concentration, agar dilution. Type of data set: cell-based. To be noted: Acinetobacter calcoaceticus, Muller-Hinton agar, 10^7 CFU per ml, 37° C., 20 hours. As for the experimental part: (§1) The minimum inhibitory concentration was determined by diluting the test compounds according to 2-fold dilution, suspending them in M uller-Hinton agar medium, inoculating the test strains having 10^7 CFU per 1 ml into the medium and then culturing the medium at 37° C. for 20 hours.

For a further data set, the system named is E. cloacae 1194E. Put plainly: Minimum inhibitory concentration, agar dilution. Type of data set: cell-based. The settings on record: Enterobacter cloacae, 1194E, 20 h, read-out: Minimum Inhibitory Concentration. As for the experimental part:
as §1

In another data set the test system is E. coli 10536. The experiment in a line: Minimum inhibitory concentration, agar dilution. It counts as cell-based. The settings on record: Escherichia coli; E. coli 10536; Muller-Hinton agar, 10^7 CFU per ml, 37° C., 20 hours; read-out: Minimum Inhibitory Concentration. As for the experimental part: as §1
Another data set concerns E. coli 3190Y. Put plainly: Minimum inhibitory concentration, agar dilution. Type of data set: cell-based. To be noted: Escherichia coli; E. coli 3190Y; Muller-Hinton agar, 10^7 CFU per ml, 37° C., 20 hours; read-out: Minimum Inhibitory Concentration. Here is the method: as §1
For a further data set, the system named is E. coli TEM1 1193E. The experiment in a line: Minimum inhibitory concentration, agar dilution. It counts as cell-based. The settings on record: Escherichia coli, TEM11193E, 20 h, read-out: Minimum Inhibitory Concentration. Here is the method: as §1
Another data set concerns E. coli TEM5 3739E. Put plainly: Minimum inhibitory concentration, agar dilution. It counts as cell-based. The settings on record: Escherichia coli, TEM53739E, 20 h, read-out: Minimum Inhibitory Concentration. As for the experimental part: as §1
On the technique in general: In agar dilution the substance is mixed into plates at graded concentrations.

The subject of the next data set is E. coli TEM9 2639E. Put plainly: Minimum inhibitory concentration, agar dilution. Type of data set: cell-based. The settings on record: Escherichia coli, TEM92639E, 20 h, read-out: Minimum Inhibitory Concentration. Here is the method:
as §1

A further data set deals with K. aerogenes 1976E. Put plainly: Minimum inhibitory concentration, agar dilution. To be noted: Klebsiella aerogenes, Muller-Hinton agar, 10^7 CFU per ml, 37° C., 20 hours. Type of data set: cell-based. As for the experimental part:
as §1

The next data set deals with P. aeruginosa 10145. Put plainly: Minimum inhibitory concentration, agar dilution. It counts as cell-based. To be noted: Pseudomonas aeruginosa, Muller-Hinton agar, 10^7 CFU per ml, 37° C., 20 hours. As for the experimental part: as §1
For a further data set, the system named is P. aeruginosa 1912E. Put plainly: Minimum inhibitory concentration, agar dilution. It counts as cell-based. The settings on record: Pseudomonas aeruginosa, 20 h, read-out: Minimum Inhibitory Concentration. Here is the method:
as §1

The next data set deals with P. aeruginosa 6065Y. The experiment in a line: Minimum inhibitory concentration, agar dilution. It counts as cell-based. To be noted: Pseudomonas aeruginosa, 20 h, read-out: Minimum Inhibitory Concentration. Here is the method:
as §1

The next data set relates to S. aureus 6538pA. The experiment in a line: Minimum inhibitory concentration, agar dilution. It counts as cell-based. The settings on record: Staphylococcus aureus, Muller-Hinton agar, 10^7 CFU per ml, 37° C., 20 hours. Here is the method:
as §1

For a further data set, the system named is S. aureus giorigio. The experiment in a line: Minimum inhibitory concentration, agar dilution. It counts as cell-based. The settings on record: Staphylococcus aureus, Muller-Hinton agar, 10^7 CFU per ml, 37° C., 20 hours. Here is the method:
as §1

A further data set concerns S. faecalis 29212A. Put plainly: Minimum inhibitory concentration, agar dilution. Type of data set: cell-based. The settings on record: Enterococcus faecalis, read-out: Minimum Inhibitory Concentration. As for the experimental part: as §1
Another data set has as its system S. marcescens 1826E. Put plainly: Minimum inhibitory concentration, agar dilution. Type of data set: cell-based. The settings on record: Serratia marcescens, Muller-Hinton agar, 10^7 CFU per ml, 37° C., 20 hours. As for the experimental part: as §1
The next data set has as its system S. typhimurium 14028A. The experiment in a line: Minimum inhibitory concentration, agar dilution. It counts as cell-based. To be noted: Salmonella enterica, read-out: Minimum Inhibitory Concentration. Here is the method: as §1
Data set [1] in a line: Pharmacokinetic properties in SD rats. It counts as in vivo. The settings on record: rat; SD rats (male), intravenous, 20 mg/kg; blood, biological assay (agar well method). Here is the method:
The pharmacokinetic properties of the compound of the present invention were determined using SD rats (.male.) weighing 220 to 340 g. Specifically, the test samples were administered in intravenous route in an amount of 20 mg/kg to 2 to 5 test animals. Blood was taken from femoral vein every hours after the administration and then subjected to a biological assay using agar well method to measure the blood concentration. The results of pharmacokinetic properties calculated from the above blood concentration are described in the following Table 3.

Where [2] appears, read: S. faecalis 29212A, Muller-Hinton agar, 10^7 CFU per ml, 37° C., 20 hours.

≈ marks a conversion by molar mass, not a printed value. Like-named read-outs stand apart in the source and are kept apart here.

On to `Nc1nc(C(=NOC(C(=O)O)c2ccc(O)c(O)c2)C(=O)NC2C(=O)N3C(C(=O)[O-])=C(CSc4nc(N)c5c([n+]4N)CCC5)CSC23)cs1` (stereo not drawn) [I-8(a), 7-[(Z)-2-(2-aminothiazol-4-yl)-2-(α-carboxy-3,4-dihydroxybenzyloxyimino)acetamido]-3-(1,4-diamino-1,5,6,7-tetrahydrocyclopentapyrimidin-2-yl) thiomethyl-3-cephem-4-carboxylate], for which the MIC with A. calcoaceticus 15473A is 0.25 µg/mL (≈ 0.343 µM); in the data set with E. cloacae 1194E it was 2 µg/mL (≈ 2.74 µM); in the data set on E. coli 10536, 0.031 µg/mL (≈ 0.0425 µM); in the data set with E. coli 3190Y, 0.031 µg/mL (≈ 0.0425 µM); in the data set with E. coli TEM1 1193E, 0.063 µg/mL (≈ 0.0863 µM); in the data set with E. coli TEM5 3739E, 0.5 µg/mL (≈ 0.685 µM). The MIC was 1 µg/mL (≈ 1.37 µM) in the data set on E. coli TEM9 2639E; 0.13 µg/mL (≈ 0.178 µM) with K. aerogenes 1976E; 0.5 µg/mL (≈ 0.685 µM) with P. aeruginosa 10145; 0.5 µg/mL (≈ 0.685 µM) in the data set with P. aeruginosa 1912E; 1 µg/mL (≈ 1.37 µM) in the data set with P. aeruginosa 6065Y; 0.5 µg/mL (≈ 0.685 µM) in the data set with S. aureus 6538pA. In addition, the MIC against S. aureus giorigio was 0.063 µg/mL (≈ 0.0863 µM); with S. faecalis 29212A (29212A, 20 h), 16 µg/mL (≈ 21.9 µM); in the data set with S. marcescens 1826E, 0.5 µg/mL (≈ 0.685 µM); in the data set with S. typhimurium 14028A (TYPHIMURIUM, 20 h) it was 0.063 µg/mL (≈ 0.0863 µM). Also, the AUC in data set [1] is 64500 ng·h/mL. The same compound yielded a half-life in data set [1] of 53 min.

In the case of `Cn1c(N)n[n+]2c(SCC3=C(C(=O)[O-])N4C(=O)C(NC(=O)C(=NOC(C(=O)O)c5ccc(O)c(O)c5)c5csc(N)n5)[C@H]4SC3)nc(N)cc12` (stereo partly drawn) [I-10(a), 7-[(Z)-2-(2-aminothiazol-4-yl)-2-(α-carboxy-3,4-dihydroxybenzyloxyimino)acetamido]-3-(2,7-diamino-1-methyl[1,2,4]triazolo[1,5-c]pyrimidinium-5-yl)thiomethyl-3-cephem-4-carboxylate], the MIC is 0.5 µg/mL (≈ 0.672 µM) in the data set with A. calcoaceticus 15473A; 1 µg/mL (≈ 1.34 µM) with E. cloacae 1194E; 0.016 µg/mL (≈ 0.0215 µM) in the data set with E. coli 10536; 0.031 µg/mL (≈ 0.0417 µM) in the data set with E. coli 3190Y; 0.063 µg/mL (≈ 0.0847 µM) with E. coli TEM1 1193E; 0.25 µg/mL (≈ 0.336 µM) in the data set with E. coli TEM5 3739E. The MIC with E. coli TEM9 2639E amounted to 1 µg/mL (≈ 1.34 µM); against K. aerogenes 1976E, 0.13 µg/mL (≈ 0.175 µM); with P. aeruginosa 10145, 0.25 µg/mL (≈ 0.336 µM); with P. aeruginosa 1912E, 0.5 µg/mL (≈ 0.672 µM); in the data set on P. aeruginosa 6065Y it was 0.5 µg/mL (≈ 0.672 µM); against S. aureus 6538pA, 0.5 µg/mL (≈ 0.672 µM). Moreover, the MIC came out at 0.25 µg/mL (≈ 0.336 µM) in the data set on S. aureus giorigio; 8 µg/mL (≈ 10.8 µM) in the data set with S. faecalis 29212A (setting [2]); 0.25 µg/mL (≈ 0.336 µM) against S. marcescens 1826E; 0.063 µg/mL (≈ 0.0847 µM) in the data set on S. typhimurium 14028A (TYPHIMURIUM, 20 h). In [1], this compound gave an AUC of 66000 ng·h/mL. The same compound yielded a half-life in data set [1] of 58 min.

As for `Cn1cc[n+]2c(SCC3=C(C(=O)[O-])N4C(=O)C(NC(=O)C(=NOC(C(=O)O)c5ccc(O)c(O)c5)c5csc(N)n5)C4SC3)nc(N)cc12` (stereo not drawn) [I-11(a), 7-[(Z)-2-(2-aminothiazol-4-yl)-2-(α-carboxy-3,4-dihydroxybenzyloxyimino)acetamido]-3-(7-amino-1-methyl-1H-imidazo[1,2-c]pyrimidinium-5-yl)-thiomethyl-3-cephem-4-carboxylate], the MIC was 0.5 µg/mL (≈ 0.687 µM) in the data set with A. calcoaceticus 15473A; 1 µg/mL (≈ 1.37 µM) in the data set on E. cloacae 1194E; not above 0.008 µg/mL with E. coli 10536; 0.031 µg/mL (≈ 0.0426 µM) in the data set with E. coli 3190Y; 0.063 µg/mL (≈ 0.0866 µM) in the data set on E. coli TEM1 1193E; 0.25 µg/mL (≈ 0.344 µM) in the data set with E. coli TEM5 3739E. Further, the MIC is 1 µg/mL (≈ 1.37 µM) in the data set on E. coli TEM9 2639E; 0.13 µg/mL (≈ 0.179 µM) against K. aerogenes 1976E; 0.25 µg/mL (≈ 0.344 µM) in the data set on P. aeruginosa 10145; 0.5 µg/mL (≈ 0.687 µM) with P. aeruginosa 1912E; 0.5 µg/mL (≈ 0.687 µM) in the data set on P. aeruginosa 6065Y; 0.5 µg/mL (≈ 0.687 µM) with S. aureus 6538pA. For the same compound, the MIC amounted to 0.5 µg/mL (≈ 0.687 µM) with S. aureus giorigio; 8 µg/mL (≈ 11 µM) in the data set on S. faecalis 29212A (setting [2]); 0.25 µg/mL (≈ 0.344 µM) with S. marcescens 1826E; 0.016 µg/mL (≈ 0.022 µM) in the data set with S. typhimurium 14028A (S. typhimurium 14028A, Muller-Hinton agar, 10^7 CFU per ml, 37° C., 20 hours). In data set [1], this compound had an AUC of 47900 ng·h/mL. In [1], this compound yielded a half-life of 68 min.

Usually AUC stands for the area under the concentration-time curve, a measure of exposure. High values mean high exposure, low ones low exposure. Broadly, the half-life is the time needed for the level to fall by half in the phase considered. Low values mean rapid decline, high ones slow decline.

Values taken from patent publication US5605895A, “Cephalosporin antibiotics and processes for preparation thereof” (Lucky, Ltd., priority 1993, dated 1997).
